Data on 4 compounds can be found in ChEMBL document CHEMBL2157963, “Synthesis and in vitro antitumour screening of 2-(β-D-xylofuranosyl)thiazole-4-carboxamide and two novel tiazofurin analogues with substituted tetrahydrofurodioxol moiety as a sugar mimic” (Bioorg Med Chem Lett, 2012).

Calls of active or inactive are those of the source. No cut-off for these calls is given here.

In test [1] the test system is HeLa. The test can be described thus: Cytotoxicity against human HeLa cells after 72 hrs by MTT assay. In kind it is functional, cell-based. In general terms: Tetrazolium dyes change colour on reduction, which living cells bring about.
The subject of test [2] is HT-29. The test can be described thus: Cytotoxicity against human HT-29 cells. Type of test: functional, cell-based.
Test [3] deals with MRC5. The test can be described thus: Cytotoxicity against human MRC5 cells after 72 hrs by MTT assay. The note with it: MRC5, 72 h. Type of test: cell-based.
Test [4] relates to Jurkat. The test can be described thus: Cytotoxicity against human Jurkat cells after 72 hrs by MTT assay. Type of test: functional, cell-based.
The test system of test [5] is Raji. The test can be described thus: Cytotoxicity against human Raji cells after 72 hrs by MTT assay. Type of test: functional, cell-based.
In test [6] the test system is K562. The test can be described thus: Cytotoxicity against human K562 cells after 72 hrs by MTT assay. In kind it is functional, cell-based. As to conditions: K562, 72 h.
In test [7] the test system is MDA-MB-231. The test can be described thus: Cytotoxicity against human MDA-MB-231 cells. Type of test: functional, cell-based.
The subject of test [8] is HL-60. The test can be described thus: Cytotoxicity against human HL60 cells after 72 hrs by MTT assay. Type of test: functional, cell-based. As to conditions: HL-60, 72 h.
Test [9] deals with MCF7. The test can be described thus: Cytotoxicity against human MCF7 cells. In kind it is functional, cell-based.
The subject of test [10] is K562. The test can be described thus: Ratio of tiazofurin IC50 to compound IC50 for human K562 cells. In kind it is functional.
The test system of test [11] is HeLa. The test can be described thus: Ratio of tiazofurin IC50 to compound IC50 for human HeLa cells. Type of test: functional.
Test [12] concerns HL-60. The test can be described thus: Ratio of tiazofurin IC50 to compound IC50 for human HL60 cells. In kind it is functional.
In test [13] the test system is K562. The test can be described thus: Cytotoxicity against human K562 cells after 72 hrs by DET assay. Type of test: functional, cell-based. The note with it: K562, 72 h.
The test system of test [14] is K562. The test can be described thus: Induction of apoptosis in human K562 cells at IC50 concentration after 24 hrs by AnnexinV staining-based flow cytometric analysis. In kind it is functional, cell-based.
Test [15] deals with K562. The test can be described thus: Cytotoxicity against human K562 cells after 72 hrs by SRB assay. In kind it is functional, cell-based. As to conditions: K562, 72 h.
Test [16] deals with K562. The test can be described thus: Induction of apoptosis in human K562 cells assessed as apoptotic cells at IC50 concentration after 72 hrs by AnnexinV staining-based flow cytometric analysis relative to tiazofurin. Type of test: functional. For orientation: Flow cytometry measures light scatter and fluorescence of single cells or particles in a stream.

What is called IC50 is the point on the concentration scale where inhibition reaches its midpoint. Regarding `NC(=O)c1csc([C@@H]2O[C@H](CO)[C@@H](O)[C@H]2O)n1` [TIAZOFURIN], the IC50 in [1] is 3820 nM; in test [2] it was 260 nM; in test [3] it was 360 nM; in test [4], 40 nM; in [5], 5280 nM; in test [6] it was 2090 nM. The IC50 in [7] amounted to 260 nM; in test [8], 190 nM; in test [9] it was 260 nM.
Take `C[C@]1(c2nc(C(N)=O)cs2)O[C@H]2O[C@H](CO)[C@H](O)[C@H]2O1`: the IC50 in test [1] was 640 nM; in [3], greater than 100000 nM; in [4] it was 640 nM; in test [5] it was 5610 nM; in [6], 20 nM; in test [8], 340 nM. In addition, the “Ratio IC50” value in [10] was determined as 100.
For the compound `C[C@@]1(c2nc(C(N)=O)cs2)O[C@H]2O[C@H](CO)[C@H](O)[C@H]2O1`, the IC50 is 60 nM in test [1]; greater than 100000 nM in [3]; 590 nM in [4]; 2640 nM in test [5]; 100 nM in [6]; 50 nM in test [8]. For the same compound, the “Ratio IC50” value in test [11] came to 64; in [12] it was 4.
Take `NC(=O)c1csc([C@@H]2O[C@H](CO)[C@H](O)[C@H]2O)n1`: the IC50 in test [1] was 80 nM; in [13], 100 nM; in [3], greater than 100000 nM; in [4], 530 nM; in test [5], 3110 nM; in [6] it was 150 nM. Also, the values for the IC50 in test [15] and in test [8] were 416 nM and 130 nM, respectively. Besides, the result in test [2], in test [7] and in test [9] was inactive. Further, in test [14], the outcome was Active. In addition, in test [11], the “Ratio IC50” value is recorded as 48. In addition, in test [16], the “fold change (FC)” value was found to be 7.
